Patent publication US20230416248A1, “COMPOUNDS AND USES THEREOF” (Foghorn Therapeutics Inc., priority 2020, published 2023)

Assays:
BRG-1 = target: T1, BRG-1 (Homo sapiens, UniProt P51532); test: ATPase catalytic activity of BRG-1, ADP-Glo in vitro biochemical assay; settings: ATPase catalytic activity, ADP-Glo; 30 nM BRG-1, 400 μM ATP; read-out: BRG1 IC50
T1 construct: made in house; host or cells: High Five insect cells
Summary of the method: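 Biochemical ADP-Glo assay, BRG-1. Post-reaction: ATP depletion reagent, 40 min RT; ADP→ATP conversion/detection reagent, 60 min RT; luminescence read on plate luminometer.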

BRM = target: T2, BRM (Homo sapiens, UniProt P51531); test: ATPase catalytic activity of BRM, ADP-Glo in vitro biochemical assay; settings: for IC50: ATPase catalytic activity, ADP-Glo, 30 nM BRM, 400 μM ATP; for Ratio*: ratio of BRG1 IC50 to BRM IC50
T2 construct: made in house; host or cells: High Five insect cells
T2 sequence (P51531 whole entry): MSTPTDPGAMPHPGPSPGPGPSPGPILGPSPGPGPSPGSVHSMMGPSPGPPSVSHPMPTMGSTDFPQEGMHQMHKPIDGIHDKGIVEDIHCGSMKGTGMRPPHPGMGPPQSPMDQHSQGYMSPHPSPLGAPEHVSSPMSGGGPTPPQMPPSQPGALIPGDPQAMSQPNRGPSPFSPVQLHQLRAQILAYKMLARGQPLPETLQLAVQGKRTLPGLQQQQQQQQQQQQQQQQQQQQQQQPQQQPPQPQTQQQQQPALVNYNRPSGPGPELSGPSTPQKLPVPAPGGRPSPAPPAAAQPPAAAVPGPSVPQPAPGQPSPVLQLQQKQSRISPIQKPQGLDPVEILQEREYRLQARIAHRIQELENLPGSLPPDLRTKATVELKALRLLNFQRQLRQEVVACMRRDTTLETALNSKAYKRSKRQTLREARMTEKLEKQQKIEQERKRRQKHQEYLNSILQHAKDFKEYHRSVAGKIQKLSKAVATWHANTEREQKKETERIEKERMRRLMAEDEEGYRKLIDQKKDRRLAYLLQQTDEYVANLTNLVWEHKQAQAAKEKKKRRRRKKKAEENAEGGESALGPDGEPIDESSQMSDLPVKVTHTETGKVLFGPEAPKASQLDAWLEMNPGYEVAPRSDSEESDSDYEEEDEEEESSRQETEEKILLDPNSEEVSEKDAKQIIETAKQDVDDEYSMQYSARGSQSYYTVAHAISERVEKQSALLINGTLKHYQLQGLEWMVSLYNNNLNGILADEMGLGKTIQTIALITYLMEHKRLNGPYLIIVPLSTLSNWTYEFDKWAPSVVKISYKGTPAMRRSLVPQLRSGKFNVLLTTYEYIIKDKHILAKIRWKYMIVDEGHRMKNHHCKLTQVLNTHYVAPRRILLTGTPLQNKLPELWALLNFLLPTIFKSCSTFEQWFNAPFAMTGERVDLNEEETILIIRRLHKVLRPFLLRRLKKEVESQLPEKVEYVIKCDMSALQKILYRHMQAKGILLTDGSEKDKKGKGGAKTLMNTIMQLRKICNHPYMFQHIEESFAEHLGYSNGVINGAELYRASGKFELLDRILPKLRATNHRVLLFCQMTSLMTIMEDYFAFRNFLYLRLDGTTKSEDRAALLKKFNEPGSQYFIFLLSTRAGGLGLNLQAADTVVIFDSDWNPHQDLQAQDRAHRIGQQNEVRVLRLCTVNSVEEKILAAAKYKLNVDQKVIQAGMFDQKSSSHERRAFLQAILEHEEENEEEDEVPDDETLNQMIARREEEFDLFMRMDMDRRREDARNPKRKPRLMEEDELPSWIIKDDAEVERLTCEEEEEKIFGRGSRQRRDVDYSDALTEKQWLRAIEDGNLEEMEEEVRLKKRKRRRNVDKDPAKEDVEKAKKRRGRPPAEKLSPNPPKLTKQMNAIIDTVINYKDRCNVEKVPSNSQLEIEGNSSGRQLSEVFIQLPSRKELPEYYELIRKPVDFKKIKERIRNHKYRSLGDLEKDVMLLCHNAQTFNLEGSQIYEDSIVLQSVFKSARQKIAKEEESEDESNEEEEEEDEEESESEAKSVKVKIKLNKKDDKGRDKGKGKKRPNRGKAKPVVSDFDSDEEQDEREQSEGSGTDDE
Summary of the method: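 Recombinant BRM (30 nM) hydrolysed 400 μM ATP with 20 nM salmon sperm DNA in pH 8 Tris buffer containing 20 mM MgCl2, 50 mM NaCl, 0.1% Tween-20 and 1 mM DTT, 1 h at room temperature. ADP formed was quantified by ADP-Glo luminescence.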

T1 sequence (P51532 whole entry): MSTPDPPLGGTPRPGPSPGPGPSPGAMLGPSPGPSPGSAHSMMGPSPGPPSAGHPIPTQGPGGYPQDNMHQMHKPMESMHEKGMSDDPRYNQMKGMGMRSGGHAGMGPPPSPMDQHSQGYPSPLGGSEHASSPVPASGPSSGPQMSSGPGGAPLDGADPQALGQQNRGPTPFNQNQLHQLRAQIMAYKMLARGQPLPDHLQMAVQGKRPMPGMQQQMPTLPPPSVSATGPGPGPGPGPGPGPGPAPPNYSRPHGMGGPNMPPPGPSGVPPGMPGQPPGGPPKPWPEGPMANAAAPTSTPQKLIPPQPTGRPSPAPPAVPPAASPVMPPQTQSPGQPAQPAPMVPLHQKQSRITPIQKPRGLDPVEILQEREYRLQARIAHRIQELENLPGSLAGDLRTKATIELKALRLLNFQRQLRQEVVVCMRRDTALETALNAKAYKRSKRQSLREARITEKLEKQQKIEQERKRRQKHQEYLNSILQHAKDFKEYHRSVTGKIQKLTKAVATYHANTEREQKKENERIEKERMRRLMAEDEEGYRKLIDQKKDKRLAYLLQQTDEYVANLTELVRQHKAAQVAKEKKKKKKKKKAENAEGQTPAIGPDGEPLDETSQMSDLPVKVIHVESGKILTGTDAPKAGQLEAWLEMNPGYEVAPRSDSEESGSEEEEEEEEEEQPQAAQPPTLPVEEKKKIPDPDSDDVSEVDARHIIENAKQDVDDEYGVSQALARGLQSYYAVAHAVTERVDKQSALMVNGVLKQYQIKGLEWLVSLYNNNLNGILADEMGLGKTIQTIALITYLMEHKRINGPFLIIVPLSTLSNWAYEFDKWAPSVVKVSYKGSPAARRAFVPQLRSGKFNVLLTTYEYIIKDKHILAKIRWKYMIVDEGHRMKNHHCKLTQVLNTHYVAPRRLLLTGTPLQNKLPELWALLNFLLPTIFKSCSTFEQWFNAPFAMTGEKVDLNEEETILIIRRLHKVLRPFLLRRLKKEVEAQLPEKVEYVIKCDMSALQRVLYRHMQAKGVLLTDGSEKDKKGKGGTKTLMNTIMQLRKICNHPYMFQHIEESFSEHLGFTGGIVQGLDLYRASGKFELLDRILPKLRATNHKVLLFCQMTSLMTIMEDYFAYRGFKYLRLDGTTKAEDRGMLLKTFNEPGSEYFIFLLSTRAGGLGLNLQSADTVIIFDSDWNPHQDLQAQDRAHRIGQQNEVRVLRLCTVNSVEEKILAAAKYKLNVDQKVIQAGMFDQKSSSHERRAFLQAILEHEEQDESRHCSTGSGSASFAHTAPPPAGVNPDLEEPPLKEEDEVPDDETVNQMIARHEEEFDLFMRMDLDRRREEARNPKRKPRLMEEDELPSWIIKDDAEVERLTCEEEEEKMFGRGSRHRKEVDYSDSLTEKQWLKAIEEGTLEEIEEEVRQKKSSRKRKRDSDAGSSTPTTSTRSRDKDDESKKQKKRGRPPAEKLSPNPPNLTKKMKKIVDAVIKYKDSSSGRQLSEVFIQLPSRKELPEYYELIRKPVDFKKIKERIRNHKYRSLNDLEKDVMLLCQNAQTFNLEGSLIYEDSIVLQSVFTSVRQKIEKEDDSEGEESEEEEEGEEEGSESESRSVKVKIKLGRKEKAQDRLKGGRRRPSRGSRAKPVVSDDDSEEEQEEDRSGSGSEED

| Structure (SMILES) | IC50 (BRG-1) | IC50 (BRM) | Ratio* (BRM) |
| --- | --- | --- | --- |
| CCO[C@H]1CCS(=O)(=O)c2cc(C(=O)NCc3cc4nc(-c5cccc(N6C[C@@H](C)O[C@@H](C)C6)n5)ccc4cn3)ccc2C1 [Compound 482] | 234 nM | 23.1 nM | 10.09 |
| C[C@@H]1CN(c2cccc(-c3ccc4cnc(CNC(=O)c5ccc6c(c5)S(=O)(=O)CC[C@@H]6C)cc4n3)n2)C[C@H](C)O1 [Compound 483] | 1230 nM | 43.8 nM | 27.99 |
| C[C@@H]1CN(c2cccc(-c3ccc4cnc(CNC(=O)c5cc(Cl)c6c(c5)S(=O)(=O)[C@@H](C)CCO6)cc4n3)n2)C[C@H](C)O1 [Compound 484] | 289 nM | 13.7 nM | 21.16 |
| COc1cccc(-c2ccc3cnc(CNC(=O)c4ccc5c(c4)S(=O)(=O)CCOC5)cc3n2)n1 [Compound 487] | 344 nM | 21.9 nM | 15.66 |
| C[C@@H]1CN(c2cccc(-c3ccc4cnc(CNC(=O)c5ccc6c(c5)S(=O)(=O)CC[C@H]6C)cc4n3)n2)C[C@H](C)O1 [Compound 490] | 787 nM | 56.1 nM | 14.02 |
| CCOc1nc(-c2ccc3cnc(CNC(=O)c4ccc5c(c4)S(=O)(=O)CCOC5)cc3n2)ccc1Cl [Compound 493] | 921 nM | 179 nM | 5.15 |
| C[C@@H]1CN(c2cccc(-c3ccc4cnc(CNC(=O)c5cc(F)c6c(c5)S(=O)(=O)CC[C@H](C)O6)cc4n3)n2)C[C@H](C)O1 [Compound 495] | 981 nM | 63.1 nM | 15.54 |
| COC1CCN(c2ccc3cnc(CNC(=O)c4ccc5c(c4)S(=O)(=O)CCOC5)cc3n2)c2ncccc21 (stereo not drawn) [Compound 496] | 2390 nM | 157 nM | 15.21 |
| CCOc1nc(-c2ccc3cnc(CNC(=O)c4ccc5c(c4)S(=O)(=O)[C@@H](C)COC5)cc3n2)ccc1F [Compound 497] | 411 nM | 25.9 nM | 15.92 |
| CC1CN(c2cccc(-c3ccc4cnc(CNC(=O)c5ccc6c(c5)S(=O)(=O)C(C)CN6C)cc4n3)n2)CC(C)O1 (stereo not drawn) [Compound 498] | 439 nM | 26.6 nM | 16.52 |
| O=C(NCc1cc2nc(-c3ccc4c(n3)OCCC4)ccc2cn1)c1ccc2c(c1)S(=O)(=O)CCOC2 [Compound 499] | 1190 nM | 290 nM | 4.12 |
| C[C@@H]1CN(c2cccc(-c3ccc4cnc(CNC(=O)c5ccc6c(c5)S(=O)(=O)[C@@H](C)C6)cc4n3)n2)C[C@H](C)O1 [Compound 500] | 3520 nM | 208 nM | 16.91 |
| CC1CCN(c2ccc3cnc(CNC(=O)c4ccc5c(c4)S(=O)(=O)CCOC5)cc3n2)c2ncccc21 (stereo not drawn) [Compound 504] | 213 nM | 28.6 nM | 7.45 |
| C[C@@H]1CN(c2cccc(-c3ccc4cnc(CNC(=O)c5cc(Cl)c6c(c5)S(=O)(=O)CC[C@H](C)O6)cc4n3)n2)C[C@H](C)O1 [Compound 506] | 645 nM | 49.2 nM | 13.12 |
| COC[C@H](NC(=O)c1ccc2c(c1)S(=O)(=O)CCOC2)c1cc2nc(-c3cccc(C4CC4)n3)ccc2cn1 [Compound 507] | 2430 nM | 387 nM | 6.28 |
| CN1C(=O)CN(c2ccc3cnc(CNC(=O)c4ccc5c(c4)S(=O)(=O)CCOC5)cc3n2)c2ccccc21 [Compound 511] | 835 nM | 329 nM | 2.54 |
| CN1CCN(c2ccc3cnc(CNC(=O)c4ccc5c(c4)S(=O)(=O)CCOC5)cc3n2)c2ccccc21 [Compound 512] | 217 nM | 28.7 nM | 7.58 |
| Cc1cnc2c(c1)CCCN2c1ccc2cnc(CNC(=O)c3ccc4c(c3)S(=O)(=O)CCCO4)cc2n1 [Compound 514] | 465 nM | 58.9 nM | 7.89 |

The next compounds have a lower IC50 (BRG-1) than those just listed; values first:

| IC50 (BRG-1) | IC50 (BRM) | Ratio* (BRM) | Structure (SMILES) |
| --- | --- | --- | --- |
| 189 nM | 48.3 nM | 3.92 | CC(F)(F)CN1CCOc2c(-c3ccc4cnc(CNC(=O)c5ccc6c(c5)S(=O)(=O)CCOC6)cc4n3)cccc21 [Compound 479] |
| 60.2 nM | 5.1 nM | 11.83 | CO[C@@H]1C[C@H]1N(C)c1cccc(-c2ccc3cnc(CNC(=O)c4ccc5c(c4)S(=O)(=O)CCOC5)cc3n2)n1 [Compound 480] |
| 113 nM | 13.2 nM | 8.58 | O=C(NCc1cc2nc(N3CCOc4cc(C5CC5)ccc43)ccc2cn1)c1ccc2c(c1)S(=O)(=O)CCOC2 [Compound 481] |
| 189 nM | 13 nM | 14.45 | CCOC1CCS(=O)(=O)c2cc(C(=O)NCc3cc4nc(-c5cccc(N6CC(C)OC(C)C6)n5)ccc4cn3)ccc2C1 (stereo not drawn) [Compound 485] |
| 90.8 nM | 12.7 nM | 7.17 | CN1CCCc2ccc(-c3ccc4cnc(CNC(=O)c5ccc6c(c5)S(=O)(=O)CCOC6)cc4n3)nc21 [Compound 488] |
| 181 nM | 15.9 nM | 11.37 | CCOc1nc(-c2ccc3cnc(CNC(=O)c4ccc5c(c4)S(=O)(=O)CCOC5)cc3n2)ccc1C(F)F [Compound 489] |
| 62.8 nM | 5.8 nM | 10.83 | Cc1cnc2c(c1)OCCN2c1ccc2cnc(CNC(=O)c3ccc4c(c3)S(=O)(=O)CCOC4)cc2n1 [Compound 491] |
| 19.1 nM | 4.4 nM | 4.38 | COc1cccc2c1CCCN2c1ccc2cnc(CNC(=O)c3ccc4c(c3)S(=O)(=O)CCOC4)cc2n1 [Compound 492] |
| 98.5 nM | 22.4 nM | 4.39 | C[C@@H]1CCS(=O)(=O)c2cc(C(=O)NCc3cc4nc(-c5cccc(N6C[C@@H](C)O[C@@H](C)C6)n5)ccc4cn3)cc(F)c2O1 [Compound 494] |
| 135 nM | 9.9 nM | 13.59 | CCOc1nc(-c2ccc3cnc(CNC(=O)c4ccc5c(c4)S(=O)(=O)CCOC5)cc3n2)ccc1C [Compound 501] |
| 120 nM | 8 nM | 14.99 | C[C@@H]1CN(c2cccc(-c3ccc4cnc(CNC(=O)c5ccc6c(c5)S(=O)(=O)[C@H](C)C6)cc4n3)n2)C[C@H](C)O1 [Compound 502] |
| 73.7 nM | 5.8 nM | 12.62 | O=C(NCc1cc2nc(N3CCOc4cc(C5CC5)cnc43)ccc2cn1)c1ccc2c(c1)S(=O)(=O)CCOC2 [Compound 503] |
| 137 nM | 13.1 nM | 10.53 | O=C(NCc1cc2nc(N3CCOc4cc(C(F)F)cnc43)ccc2cn1)c1ccc2c(c1)S(=O)(=O)CCOC2 [Compound 508] |
| 26.9 nM | 6.4 nM | 4.21 | C[C@@H]1CN(c2cccc(-c3ccc4cnc(CNC(=O)c5cnc6c(c5)S(=O)(=O)[C@@H](C)CCC6)cc4n3)n2)C[C@H](C)O1 [Compound 509] |
| 142 nM | 13.9 nM | 10.20 | COCCc1cnc2c(c1)CCCN2c1ccc2cnc(CNC(=O)c3ccc4c(c3)S(=O)(=O)CCOC4)cc2n1 [Compound 510] |
| 164 nM | 16.9 nM | 9.70 | O=C(NCc1cc2nc(N3CCCc4ccc(Cl)nc43)ccc2cn1)c1ccc2c(c1)S(=O)(=O)CCOC2 [Compound 513] |
